Legend:
[1] = target: T1, Inositol 1,4,5-trisphosphate-gated calcium channel ITPR1 (Homo sapiens, UniProt Q14643); assay: Affinity towards IP3-binding domain (IBD) of human Type 1 inositol 1,4,5-trisphosphate receptor was determined relative to compound 2
[2] = target: T1, Inositol 1,4,5-trisphosphate-gated calcium channel ITPR1; assay: Dissociation constant using IP3-binding domain (IBD) of human Type 1 inositol 1,4,5-trisphosphate receptor

T1 sequence (Q14643 whole entry, the tested form may be a part): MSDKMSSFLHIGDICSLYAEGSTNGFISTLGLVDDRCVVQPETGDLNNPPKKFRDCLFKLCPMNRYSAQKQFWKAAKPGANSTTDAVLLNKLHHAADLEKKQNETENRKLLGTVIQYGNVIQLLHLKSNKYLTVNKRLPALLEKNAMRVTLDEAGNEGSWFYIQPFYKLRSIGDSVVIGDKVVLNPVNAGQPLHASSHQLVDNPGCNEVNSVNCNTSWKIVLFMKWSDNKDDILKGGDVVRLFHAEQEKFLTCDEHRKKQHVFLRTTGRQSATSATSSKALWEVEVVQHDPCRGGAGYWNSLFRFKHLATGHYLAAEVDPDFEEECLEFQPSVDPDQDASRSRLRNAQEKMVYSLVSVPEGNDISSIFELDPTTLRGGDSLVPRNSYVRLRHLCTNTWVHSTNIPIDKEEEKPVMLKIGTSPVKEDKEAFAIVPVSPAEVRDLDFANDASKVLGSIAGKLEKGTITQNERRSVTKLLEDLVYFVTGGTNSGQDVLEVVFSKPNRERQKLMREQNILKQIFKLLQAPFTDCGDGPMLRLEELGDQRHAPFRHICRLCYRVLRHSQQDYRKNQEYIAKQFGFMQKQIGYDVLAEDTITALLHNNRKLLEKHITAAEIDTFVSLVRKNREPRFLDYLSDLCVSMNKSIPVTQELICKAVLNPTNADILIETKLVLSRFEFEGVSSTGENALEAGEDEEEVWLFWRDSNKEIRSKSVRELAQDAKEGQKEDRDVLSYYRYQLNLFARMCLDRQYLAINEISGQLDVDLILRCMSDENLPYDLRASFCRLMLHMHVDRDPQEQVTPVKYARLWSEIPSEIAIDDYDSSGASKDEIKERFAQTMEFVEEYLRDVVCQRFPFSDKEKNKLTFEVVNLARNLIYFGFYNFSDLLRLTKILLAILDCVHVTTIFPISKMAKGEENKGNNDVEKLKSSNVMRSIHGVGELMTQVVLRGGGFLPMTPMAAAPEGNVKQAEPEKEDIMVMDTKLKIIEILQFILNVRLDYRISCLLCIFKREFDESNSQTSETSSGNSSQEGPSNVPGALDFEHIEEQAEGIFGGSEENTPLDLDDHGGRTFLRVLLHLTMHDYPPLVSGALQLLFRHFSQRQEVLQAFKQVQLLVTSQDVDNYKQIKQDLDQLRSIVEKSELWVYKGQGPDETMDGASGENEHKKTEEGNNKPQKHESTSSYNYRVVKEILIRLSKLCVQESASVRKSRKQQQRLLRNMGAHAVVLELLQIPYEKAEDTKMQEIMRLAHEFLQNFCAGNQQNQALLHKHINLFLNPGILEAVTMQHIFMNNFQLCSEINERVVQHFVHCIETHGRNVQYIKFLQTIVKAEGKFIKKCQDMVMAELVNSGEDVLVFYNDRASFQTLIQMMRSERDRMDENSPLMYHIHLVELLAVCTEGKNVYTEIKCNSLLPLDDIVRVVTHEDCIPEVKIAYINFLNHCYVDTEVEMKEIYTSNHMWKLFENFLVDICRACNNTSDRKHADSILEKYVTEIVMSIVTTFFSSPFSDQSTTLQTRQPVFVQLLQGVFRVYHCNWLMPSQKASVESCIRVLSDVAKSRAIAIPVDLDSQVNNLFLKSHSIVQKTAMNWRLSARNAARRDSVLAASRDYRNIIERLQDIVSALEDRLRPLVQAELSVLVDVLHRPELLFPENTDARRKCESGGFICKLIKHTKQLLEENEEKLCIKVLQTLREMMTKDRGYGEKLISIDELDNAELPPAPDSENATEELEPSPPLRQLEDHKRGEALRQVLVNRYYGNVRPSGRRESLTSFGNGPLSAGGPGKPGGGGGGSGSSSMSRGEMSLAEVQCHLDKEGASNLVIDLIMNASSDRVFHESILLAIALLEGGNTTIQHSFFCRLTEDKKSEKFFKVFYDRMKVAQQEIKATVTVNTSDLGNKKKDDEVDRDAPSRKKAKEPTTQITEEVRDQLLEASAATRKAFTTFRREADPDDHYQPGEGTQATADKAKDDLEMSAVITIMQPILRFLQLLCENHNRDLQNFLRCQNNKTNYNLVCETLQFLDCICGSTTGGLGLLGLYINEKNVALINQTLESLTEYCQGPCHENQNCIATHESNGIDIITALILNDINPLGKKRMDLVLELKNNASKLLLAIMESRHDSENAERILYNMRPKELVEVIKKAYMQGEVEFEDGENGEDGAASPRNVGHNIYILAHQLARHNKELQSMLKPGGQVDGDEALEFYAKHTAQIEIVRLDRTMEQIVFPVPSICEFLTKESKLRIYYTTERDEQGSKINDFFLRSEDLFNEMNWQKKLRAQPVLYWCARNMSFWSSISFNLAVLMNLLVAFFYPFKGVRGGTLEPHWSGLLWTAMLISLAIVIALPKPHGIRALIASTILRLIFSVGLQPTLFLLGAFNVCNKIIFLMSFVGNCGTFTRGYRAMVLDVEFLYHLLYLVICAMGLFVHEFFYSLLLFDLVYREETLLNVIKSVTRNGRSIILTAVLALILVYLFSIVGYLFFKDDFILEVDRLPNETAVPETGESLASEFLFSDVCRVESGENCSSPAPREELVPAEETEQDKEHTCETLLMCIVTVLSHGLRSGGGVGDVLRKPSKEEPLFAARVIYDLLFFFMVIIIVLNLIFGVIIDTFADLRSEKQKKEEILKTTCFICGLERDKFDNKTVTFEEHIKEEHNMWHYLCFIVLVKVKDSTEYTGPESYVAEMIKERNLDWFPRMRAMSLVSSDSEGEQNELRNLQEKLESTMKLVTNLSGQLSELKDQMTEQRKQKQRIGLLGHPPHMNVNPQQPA

| Relative affinity [1] | Kd [2] | SMILES |
| --- | --- | --- |
| 950 | – | CN(C)c1ccc(C(=C2C=CC(=[N+](C)C)C=C2)c2ccc(C(=O)NCCCOP(=O)(O)O[C@@H]3[C@H](O)[C@H](O)[C@@H](OP(=O)(O)O)[C@H](OP(=O)(O)O)[C@H]3O)cc2)cc1 |
| 1 | 1500 nM | NCCCOP(=O)(O)O[C@@H]1[C@H](O)[C@H](O)[C@@H](OP(=O)(O)O)[C@H](OP(=O)(O)O)[C@H]1O |
| 2.4 | 620 nM | CN(C)c1ccc2c(-c3ccc(C(=O)NCCCOP(=O)(O)O[C@@H]4[C@H](O)[C@H](O)[C@@H](OP(=O)(O)O)[C@H](OP(=O)(O)O)[C@H]4O)cc3C(=O)[O-])c3ccc(=[N+](C)C)cc-3oc2c1 |
